Structures can show the parent of a compound that is named as a salt. Where two headings read alike, the source gives them in different places.
Assays:
[1] = test system: SUDHL5; assay: Induction of caspase-3/7 activity (Caspase-Glo 3/7), SUDHL5; format: cell-based; conditions: caspase-3/7 induction, SUDHL5 cells, 3 h treatment, median
Outline: (§1)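 Caspase-Glo 3/7 luminescence, 3 h compound exposure, 37 °C, humidified. Minus medium-only blank. EC50 fit: C0=1, plateau = reference max induction.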

[2] = test system: SUDHL5; assay: Induction of cytotoxicity (CellTiter-Glo, 5 h), SUDHL5
[3] = biological target: MCL-1 (Homo sapiens, UniProt Q07820); assay: Protein-protein interaction assay MCL-1/Noxa BH3 peptide (MCL-1 assay), TR-FRET; format: binding; conditions: MBP-MCL-1 / Noxa BH3-derived peptide, median
Outline: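 Displacement of the biotinylated Noxa BH3 peptide from MBP-tagged human MCL-1 (1 nM) is detected by time-resolved FRET. Compounds are tested in duplicate across eleven concentrations up to 20 μM, incubated 1 h at 22 °C and overnight at 4 °C, and IC50 is fitted with a four-parameter equation.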

[4] = test system: SUDHL10; assay: Induction of cytotoxicity (CellTiter-Glo, 5 h), SUDHL10
[5] = test system: MV-4-11; assay: Anti-proliferative effect (CellTiter-Glo, 72 h), MV-4-11; format: cell-based; conditions: MV-4-11 cells, median, read-out: IC50 antiproliferation assay MV-4-11 [M] (median)
Procedure: Assessment of the Anti-Proliferative Effect of Compounds in Different Cell Lines
The impact of compounds on the proliferation of different cell lines was assessed using the CellTiter-Glo® Luminescent Cell Viability reagent from Promega (G7573). Of note, SUDHL10 and SUDHL5 (DLBCL), NCI-H929 (Multiple Myeloma), A2780 (ovarian carcinoma) as well as MV-4-11(AML) cells are sensitive to MCL-1 inhibition.
In parallel, cells were plated in a reference (day 0) plate for time zero determination.
Rim wells were excluded. The cells were incubated for 72 h hours in a humidified incubator at 37° C. The day 0 plate was measured by adding 30 μl/well of CTG solution (CellTiter-Glo® Luminescent Cell Viability reagent, Promega G7573) to time zero wells in the reference plate followed by a 10 minutes incubation and luminescence reading at 0.1 ms, using the PHERAstar FS microplate reader (BMG Labtech).
After 72 h incubation, the treated plates were measured in the same way as the day 0 plate mentioned above.

[6] = test system: SUDHL5; assay: Anti-proliferative effect (CellTiter-Glo, 72 h), SUDHL5; format: cell-based; conditions: SUDHL5 cells, antiproliferation, median, read-out: Antiproli SUDHL5 [M] (median)
Outline: (§2)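 CTG luminescence read-out after 72 h compound exposure, 37 °C, humidified. Time-zero reference plate read at plating.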

[7] = test system: A2780; assay: Anti-proliferative effect (CellTiter-Glo, 72 h), A2780; format: cell-based; conditions: A2780 cells, median, read-out: IC50 antiproliferation assay A2780 [M] (median)
Outline: as §2

[8] = test system: SUDHL10; assay: Induction of caspase-3/7 activity (Caspase-Glo 3/7), SUDHL10; format: cell-based; conditions: caspase-3/7 induction, SUDHL10 cells, 3 h treatment, median
Outline: as §1

[9] = read-out: Cytotox SUDHL10 [M] (median), SUDHL10 cells, cytotoxicity induction, CellTiter-Glo, 5 h incubation, median
[10] = read-out: Cytotox SUDHL5 [M] (median), SUDHL5 cells, cytotoxicity induction, CellTiter-Glo, 5 h incubation, median
[11] = read-out: Cytotox SUDHL5 [M] (median), SUDHL5 cells, cytotoxicity induction, CellTiter-Glo, 5 h, median
[12] = Homo sapiens, SU-DHL10, 5 h, read-out: Cytotox SUDHL10 [M] (median), SUDHL10 cells, cytotoxicity induction, CellTiter-Glo, 5 h, median

Chain of MCL-1 (Q07820 whole entry): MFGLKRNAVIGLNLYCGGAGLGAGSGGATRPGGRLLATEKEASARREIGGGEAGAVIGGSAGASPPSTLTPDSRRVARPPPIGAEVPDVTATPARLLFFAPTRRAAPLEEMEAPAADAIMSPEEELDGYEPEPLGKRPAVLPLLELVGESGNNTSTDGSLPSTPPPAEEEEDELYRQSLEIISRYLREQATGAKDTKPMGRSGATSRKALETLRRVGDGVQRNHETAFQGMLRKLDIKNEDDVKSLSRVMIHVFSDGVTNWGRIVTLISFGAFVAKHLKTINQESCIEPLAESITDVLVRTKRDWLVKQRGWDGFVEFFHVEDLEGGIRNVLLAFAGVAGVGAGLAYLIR

SMILES | IC50 [3] | IC50 [4, 9] | IC50 ([5]; Homo sapiens, MV4-11, 72 h) | IC50 ([7]; Homo sapiens, A2780, 72 h) | EC50 ([8]; Homo sapiens, SU-DHL10, 3 h) | EC50 [8] | EC50 [1] | IC50 [2, 10] | IC50 [5] | IC50 ([6]; 72 h incubation) | IC50 [7] | other results
CN1CCCCn2c(C(=O)O)c(CCCOc3cccc4ccccc34)c3cccc(c32)-c2c(/C=C/F)nn(C)c2C1 (racemic) [Example 225, (rac)-3-[(E)-2-fluoroethenyl]-1,14-dimethyl-7-[3-(naphthalen-1-yloxy)propyl]-10,11,12,13,14,15-hexahydro-1H-pyrazolo[3′,4′:8,9][1,6]diazacycloundecino[10,11,1-hi]indole-8-carboxylic Acid] | 3.2 nM | > 3.3e-05 M | 1.85e-05 M | 2.33e-05 M | 19.6 µM | > 33 µM | – | – | – | – | – | EC50 ([1]; Homo sapiens, SU-DHL-5, 3 h): 16.5 µM; IC50 ([2]; Homo sapiens, SU-DHL-5, 5 h, read-out: Cytotox SUDHL5 [M] (median), SUDHL5 cells, cytotoxicity induction, CellTiter-Glo, 5 h incubation, median): 1.32e-05 M; IC50 ([4]; Homo sapiens, SU-DHL10, 5 h, read-out: Cytotox SUDHL10 [M] (median), SUDHL10 cells, cytotoxicity induction, CellTiter-Glo, 5 h incubation, median): 3.27e-05 M; IC50 ([6]; Homo sapiens, SU-DHL-5, 72 h, 72 h incubation): 7.21e-06 M
CCc1c2c(nn1CCN1CCOCC1)COCCCCn1c(C(=O)O)c(CCCOc3cccc4ccccc34)c3ccc(C)c-2c31 (single isomer, unassigned; enantiomer 2) [Example 206, 3-ethyl-4-methy-2-[2-(morpholin-4-yl)ethyl]-7-[3-(naphthalen-1-yloxy)propyl]-2,10,11,1213,15-hexahydropyrazolo[4′3′:9,10][1,6]oxazacycloundecino[8,7,6-hi]indole-carboxylic Acid (Enantiomer 2)] | 15.5 nM | 1.6e-05 M | – | – | – | 17.5 µM | 13.1 µM | 1.4e-05 M | 1.92e-05 M | 1.03e-05 M | 2.28e-05 M | –
COc1ccc2c(CCCOc3cccc4ccccc34)c(C(=O)O)n3c2c1-c1c(nn(C)c1C)COCCCC3 (single isomer, unassigned; enantiomer 2) [Example 351, 4-methoxy-2,3-dimethyl-7-[3-(naphthalen-1-yloxy)propyl]-2,10,11,12,13,15-hexahydropyrazolo[4′,3′:9,10][1,6]oxazacycloundecino[8,7,6-hi]indole-8-carboxylic acid-N-ethylethanamine Salt (Enantiomer 2)] | 2030 nM | – | – | – | – | > 33 µM | > 33 µM | – | > 3.3e-05 M | – | > 3.3e-05 M | IC50 [2, 11]: > 3.3e-05 M; IC50 ([4]; read-out: Cytotox SUDHL10 [M] (median), SUDHL10 cells, cytotoxicity induction, CellTiter-Glo, 5 h, median): > 3.3e-05 M; IC50 ([6]; 72 h): 2.07e-05 M
Cc1c2c(nn1C)COCCCCn1c(C(=O)O)c(CCCOc3cccc4cc(Cl)ccc34)c3cccc-2c31 (racemic) [Example 295, (rac)-7-{3-[(6-chloronaphthalen-1-yl)oxy]propyl}-2,3-dimethyl-2,10,11,12,13,15-hexahydropyrazolo[4′,3′:9,10][1,6]oxazacycloundecino[8,7,6-hi]indole-8-carboxylic Acid] | 5.28 nM | – | 1.58e-05 M | 1.72e-05 M | 19 µM | – | – | – | – | – | – | EC50 ([1]; Homo sapiens, SU-DHL-5, 3 h): 17 µM; IC50 ([2]; Homo sapiens, SU-DHL-5, 5 h, read-out: Cytotox SUDHL5 [M] (median), SUDHL5 cells, cytotoxicity induction, CellTiter-Glo, 5 h, median): 1.61e-05 M; IC50 [4, 12]: 1.8e-05 M; IC50 ([6]; Homo sapiens, SU-DHL-5, 72 h, 72 h): 9.86e-06 M
Cc1ccc2c(C(C)CCOc3cccc4cc(F)ccc34)c(C(=O)O)n3c2c1-c1c(nn(C)c1C)COCCCC3 (single isomer, unassigned) [Example 278, 7-{4-[(6-fluoronaphthalen-1-yl)oxy]butan-2-yl}2,3,4-trimethyl-2,10,11,12,13,15-hexahydropyrazolo[4′,3′:9,10][1,6]oxazacycloundecino[8,7,6-hi]indole-8-carboxylic Acid] | 142 nM | > 3.3e-05 M | – | – | – | > 33 µM | 26.3 µM | 2.48e-05 M | 1.49e-05 M | 1.19e-05 M | 1.26e-05 M | –
O=C(O)c1c(CCCOc2cccc3ccccc23)c2cccc3c2n1CCCCOCc1nn2c(c1-3)CCCC2 (single isomer, unassigned) [Example 254, 1-[3-(naphthalen-1-yloxy)propyl]-4,5,6,7,12,13,14,15-octahydro-9H-pyrido[1″,2″:1′,5′]pyrazolo[4′,3′:9,10][1,6]oxazacycloundecino[8,7,6-hi]indole-2-carboxylic Acid] | 2.14 nM | 8.11e-06 M | 8.59e-06 M | > 3.3e-05 M | – | 7.24 µM | 3.01 µM | 3.21e-06 M | – | 2.32e-06 M | 2.25e-05 M | –
CN1CCCn2c(C(=O)O)c(CCCOc3cccc4ccccc34)c3cccc(c32)-c2c(nn(C)c2COc2ccc(N3CCN(S(=O)(=O)N(C)C)CC3)cc2)C1 (single isomer, unassigned; enantiomer 2) [Example 1-113, 11-({4-[4-(Dimethylsulfamoyl)piperazin-1-yl]phenoxy}methyl)-7,10-dimethyl-1-[3-(1-naphthyloxy)propyl]-4,5,6,7,8,10-hexahydropyrazolo[3′,4′:7,8][1,5]diazecino[9,10,1-hi]indole-2-carboxylic Acid (Enantiomer 2)] | 27.7 nM | 2.06e-05 M | – | – | – | 9.08 µM | 10.5 µM | 1.31e-05 M | 1.2e-05 M | 1.05e-05 M | – | –
CCc1nn(C)c2c1-c1c(C)ccc3c(C(C)CCOc4cccc5cc(F)ccc45)c(C(=O)O)n(c13)CCCCOC2 (single isomer, unassigned) [Example 265, 3-ethyl-7-{4-[(6-fluoronaphthalen-1-yl)oxy]butan-2-yl}-1,4-dimethyl-1,10,11,12,13,15-hexahydropyrazolo[4′,3′:9,10][1,6]oxazacycloundecino[8,7,6-hi]indole-8-carboxylic Acid] | 5.85 nM | 7.35e-06 M | 2.75e-06 M | – | – | 10.1 µM | 2.71 µM | 2.09e-06 M | – | 2.58e-06 M | – | –
Cc1ccc2c(OCCCc3c(C(=O)O)n4c5c(cccc35)-c3c(nn(C)c3C)COCCCC4)cccc2c1 (single isomer, unassigned; enantiomer 1) [Example 308, 2,3-dimethyl-7-{3-[(6-methylnaphthalen-1-yl)oxy]propyl}-2,10,11,12,13,15-hexahydropyrazolo[4′3′:9,10][1,6]oxazacycloundecino[8,7,6-hi]indole-carboxylic Acid (Enantiomer 1)] | 5.07 nM | – | > 3.3e-05 M | > 3.3e-05 M | > 33 µM | – | 7.18 µM | – | – | – | – | IC50 [2, 11]: 5.61e-06 M; IC50 [4, 12]: > 3.3e-05 M
CN1CCCn2c(C(=O)O)c(CCCOc3cccc4ccccc34)c3cccc(c32)-c2c(nn(C)c2COc2ccc(N3CCN(S(=O)(=O)N(C)C)CC3)cc2)C1 (single isomer, unassigned; enantiomer 1) [Example 1-112, 11-({4-[4-(Dimethylsulfamoyl)piperazin-1-yl)phenoxy]methyl}-7,10-dimethyl-1-[3-(1-naphthyloxy)propyl]-4,5,6,7,8,10-hexahydropyrazolo[3′,4′:7,8][1,5]diazecino[9,10,1-hi]indole-2-carboxylic Acid (Enantiomer 1)] | 12 nM | 5.46e-06 M | – | – | – | 3.34 µM | 2.32 µM | 3.3e-06 M | 2.69e-06 M | 2.72e-06 M | – | –
